Where “and” joins values, the source holds several entries; their conditions need not be identical. Equal values may be shown once.
Experiment: Radiation dosimetry of [^89Zr]Zr-PSMA-617 (QDOSE / IDAC 2.1)
Type: in vivo, human (patients)
Parameters: TIAC (time-integrated activity coefficient): unit not given here
Method: Each patient underwent PET/CT imaging scans at 4 time points: 1 h, 24 h, 48 h, and 72 h post intravenous injection (p.i.) of 111 ± 11 MBq (mean ± standard deviation, range 97–129 MBq) [^89Zr]Zr-PSMA-617. All PET/CT imaging was performed on a Biograph mCT 40 scanner (Siemens Medical Solutions, Knoxville, TN, USA) comprising whole-body PET/CT scans extending from vertex to mid-femur in 3D mode. PET acquisition time duration was 4 min per bed position on the initial day of injection and extended up to 10 min on the last day. CT data were acquired in low-dose technique using an X-ray tube voltage of […] and a modulation of the tube current (CARE Dose4D, Siemens Erlangen; maximal tube current 30 mA) followed by reconstruction with a soft tissue reconstruction kernel (B31f) to a slice thickness of 5 mm (increment 2–4 mm). PET emission data was corrected for decay, randoms, and scatter. PET image reconstruction was performed applying an iterative 3-dimensional ordered-subset expectation maximization (OSEM) algorithm (3 iterations; 24 subsets) with gaussian filtering to a transaxial resolution of 5 mm at full width half maximum (FWHM). The matrix and the pixel size were 200 × 200 and 3.0 mm, respectively. Attenuation correction was performed using the low-dose CT data.
Mean absorbed radiation doses were estimated using the QDOSE program package (ABX-CRO, Dresden, Germany) considering the following organs as source organs: kidneys, liver, spleen, salivary glands (parotid gland and submandibular gland), and lacrimal gland. As a first step, volumetric co-registration of the different time points was performed by taking the first CT scan as reference. PET images, which were coupled to the CT images of the respective imaging session, were transformed according to the CT transformation matrix. Boundary VOIs which solely enclosed the source organs without interfering with the activity concentration of neighboring structures were manually drawn in the PET image that allowed the best organ delineation and then copied onto all other time-point scans. Manual adjustment of the boundary VOI for each time point was done when necessary, using the respective CT. Volume and activity estimation were performed within the boundary applying a fuzzy locally adaptive Bayesian (FLAB) segmentation algorithm for automatic volume delineation. The next step comprised mono-exponential regression of the serial measured activities using weighted least squares method and estimation of both, the time integrated activities (TIA) and the time-integrated activity coefficients (TIAC) in the source regions. As an approximation, a linear increase from t = 0 to the first acquisition time point was assumed, and the integration method for the first time interval was based on the trapezoidal method. Between the first and the last time point, a trapezoidal integration was used, whereas the TIA from the last time-point to infinity was calculated analytically by applying the mono-exponential fitting curve. The respective TIACs (often termed residence time) of the source organs were calculated by normalizing the TIA to the amount of activity administered. The total body TIA was calculated approximately using the total FOV volume of interest and the injected activity. As a further approximation, constant activity between t = 0 and the first acquisition time point was assumed, and the integration method for the first-time interval was based on the trapezoidal method. Between the first time point and infinity, the TIA was calculated analytically by using the mono-exponential fitting curve. Estimations of absorbed organ dose and effective dose were performed by the IDAC 2.1 software which is implemented in QDOSE [25–27]. The IDAC reference man was applied for the kidneys, the spleen, the liver, the heart and the intestine, and the sphere model for the salivary and lacrimal glands. […]

Structure (SMILES): O=C([O-])CN1CCN(CC(=O)[O-])CCN(CC(=O)NCC2CCC(C(=O)NC(Cc3ccc4ccccc4c3)C(=O)NCCCCC(NC(=O)NC(CCC(=O)O)C(=O)O)C(=O)O)CC2)CCN(CC(=O)[O-])CC1.[89Zr+4] (centres unmarked) [[^89Zr]Zr-PSMA-617]
- Overall effective dose, times higher than PET with [^68Ga]Ga-PSMA-617 or [^68Ga]Ga-PSMA-11 (111 MBq vs diagnostic activity of 200 MBq of the 68Ga tracers (ref 29, 30)): 2–3 times
- Effective dose (average of 7 patients, mean ± SD): 0.0913 ± 0.0118 mSv/MBq
- Absorbed doses of parotid glands and kidneys, times higher than [^68Ga]Ga-PSMA-617 and [^68Ga]Ga-PSMA-11 (in absolute numbers, comparators ref 29, 30): 3–4 times
- TIAC (time-integrated activity coefficient) (kidneys, mean ± SD): 1.74 ± 0.44
- l (rate constant) (kidneys, mean ± SD): 0.022 ± 0.002 h⁻¹
- A (% injected A0), monoexponential curve-fitting parameter (kidneys, mean ± SD, n = 7 patients): 3.75 ± 1.24 % injected A0
- Absorbed dose (kidneys, mean ± SD, IDAC 2.1): 0.517 ± 0.125 mGy/MBq
- A (% injected A0), monoexponential curve-fitting parameter (lacrimal gland, mean ± SD): 0.02 ± 0.01 % injected A0
- l (rate constant) (lacrimal gland, mean ± SD): 0.030 ± 0.006 h⁻¹
- Absorbed dose (lacrimal gland, mean ± SD, sphere model): 0.156 ± 0.070 mGy/MBq
- A (% injected A0), monoexponential curve-fitting parameter (liver, mean ± SD): 6.62 ± 1.39 % injected A0
- TIAC (time-integrated activity coefficient) (liver, mean ± SD): 1.54 ± 0.49
- l (rate constant) (liver, mean ± SD): 0.049 ± 0.014 h⁻¹
- Absorbed dose (liver, mean ± SD, IDAC 2.1): 0.158 ± 0.051 mGy/MBq
- A (% injected A0), monoexponential curve-fitting parameter (parotid gland, mean ± SD): 0.70 ± 0.20 % injected A0
- TIAC (time-integrated activity coefficient) (parotid gland, mean ± SD): 0.31 ± 0.10
- l (rate constant) (parotid gland, mean ± SD): 0.031 ± 0.005 h⁻¹
- Absorbed dose (parotid gland, mean ± SD, sphere model): 0.601 ± 0.185 mGy/MBq
- A (% injected A0), monoexponential curve-fitting parameter (spleen, mean ± SD): 1.25 ± 0.70 % injected A0
- TIAC (time-integrated activity coefficient) (spleen, mean ± SD): 0.21 ± 0.12
- l (rate constant) (spleen, mean ± SD): 0.079 ± 0.034 h⁻¹
- Absorbed dose (spleen, mean ± SD, IDAC 2.1): 0.175 ± 0.068 mGy/MBq
- A (% injected A0), monoexponential curve-fitting parameter (submandibular gland, mean ± SD): 0.27 ± 0.09 % injected A0
- TIAC (time-integrated activity coefficient) (submandibular gland, mean ± SD): 0.13 ± 0.04
- l (rate constant) (submandibular gland, mean ± SD): 0.029 ± 0.004 h⁻¹
- Absorbed dose (submandibular gland, mean ± SD, sphere model): 0.468 ± 0.136 mGy/MBq and 0.468 ± 0.185 mGy/MBq

— article PMC9606102, “[^89Zr]Zr-PSMA-617 PET/CT in biochemical recurrence of prostate cancer: first clinical experience from a pilot study including biodistribution and dose estimates” (European Journal of Nuclear Medicine and Molecular Imaging, 2022)
